Read-outs that look alike come from different tables or passages of the source.
Columns and labels:
DU145 tumour xenografts = test: DU145 mouse xenograft prostate cancer model study; type: in vivo, Male SCID mice; details: 25 mg/kg
Method: Cabazitaxel was prepared fresh for each dosing day. […] Dosing solutions at 4.5 and 5.5 mg/mL were prepared from this working stock immediately prior to injection.
Male SCID mice (age 7-8) weeks were inoculated subcutaneously in the flank with 3×10^6 DU145 cells in PBS:Matrigel (1:1). Mice were weighed and tumours measured 2-3 times weekly using electronic callipers. […] Treatment groups were saline, Cabazitaxel (9 and 11 mg/kg), SPL-9048 (9 mg/kg) and SPL-9005 (25 mg/kg). […] The experiment was ended on Day 126, or earlier if an ethical endpoint was met. Survival curves were analysed using the Mantel Cox log rank test.
Tumour volumes were determined 2-3 times weekly and are expressed as mean tumour volume (±SEM).
Graphs are shown for each group until fewer than 6 animals remained in each group.

[1] = Separate tolerability study in female SCID mice; type: in vivo; details: 25 mg/kg Cabazitaxel equivalent
[2] = Single-dose toxicokinetic study, intravenous bolus, free (unconjugated) cabazitaxel in plasma; type: in vivo, Sprague Dawley Crl:CD (SD) rats; details: for Cmax free (unconjugated) Cabazitaxel: i.v. bolus; for % JEVTANA ® brand cabazitaxel dose: relative to JEVTANA 2.5 mg/kg
Method: A single-dose toxicokinetic study of SPL-9048 and SPL-9005 was carried out by intravenous bolus injection in rats with a 21-day observation period. The control, 0.9% sodium chloride, was prepared and dispensed on the day of dosing. SPL-9048 and SPL-9005 were prepared at appropriate concentrations to meet dose level requirements. The dosing formulations were prepared and dispensed on each day of dosing and were used within 3 hours of preparation. The required amount of test article was weighed out and dissolved in a suitable volume of normal saline with gentle swirling and the pH was recorded. Cabazitaxel (JEVTANA® brand cabazitaxel) was prepared at appropriate concentration to meet dose level requirements. […] This stock solution was further diluted with normal saline to produce the final dosing concentration within 30 minutes.
The animals used were male and female Sprague Dawley Crl:CD (SD) rats. The animals were 10 to 14 weeks old and weighed between 327 and 565 g for males and 212 and 316 g for females at initiation of dosing. Animals were acclimated to their designated housing for at least 4 days before the first day of dosing. Animals were assigned to groups by a stratified randomization scheme designed to achieve similar group mean body weights. Males and females were randomised separately. Animals in poor health or at extremes of body weight ranges were not assigned to groups. PMI Nutrition International Certified Rodent Chow No. 5CR4 was provided ad libitum throughout the study except during designated procedures. The same diet in meal form was also provided, as needed. Municipal tap water, after treatment by reverse osmosis and ultraviolet irradiation, was freely available to each animal via an automatic watering system, except during designated procedures. Water bottles were also provided, as required. Animal were socially housed for psychological/environmental enrichment and were provided with items such as a chewing object, except when interrupted by study procedures/activities. Veterinary care was available throughout the course of the study.
The test and control articles were administered to the appropriate animals at the amounts indicated in the table below via a single intravenous (slow bolus) injection to the tail vein.
The dose volume for each animal was based on the most recent body weight measurement. The animals were temporarily restrained for dose administration and were not sedated. The doses were given using a syringe with attached needle. The first day of dosing for each group was designated as Day 1. The comparator dosing formulation (JEVTANA® brand Cabazitaxel) and test articles were maintained between 15 and 30° C. during dosing.
Toxicokinetic parameters were estimated using Phoenix pharmacokinetic software. A non-compartmental approach consistent with the intravenous route of administration was used for parameter estimation.

[3] = tested on: CAPAN-1 tumour xenografts; test: CAPAN-1 mouse xenograft pancreatic cancer model study; type: in vivo, Female NOD-SCID Interleukin-2 receptor gamma chain null mice; details: dosing days 1, 8, 15
Method: Gemcitabine and ABRAXANE® were obtained from the Peter MacCallum Cancer Centre pharmacy, and were dissolved in saline solution immediately prior to dosing.
Female NOD-SCID Interleukin-2 receptor gamma chain null mice (aged 9 weeks) were inoculated subcutaneously on the flank with 5×10^6 CAPAN-1 cells in PBS:Matrigel (1:1).
Tumour growth data was analysed in GraphPad Prism for ANOVA followed by Dunnett's post ad-hoc test.

[4] = tested on: MDA-MB-231 tumour xenografts; details: 9 mg/kg i.v. days 1, 8, 15
Method: Cabazitaxel was prepared fresh for each dosing day.
Tumour volumes were determined twice weekly and were expressed as mean tumour volume (±SEM).
The data represent the mean percent weight change from baseline (Day 1) for each group; bars SEM.

[5] = Toxicology study in rats at 1 mg/kg (neutropenia); type: in vivo
From the text: References to amounts dosed in mg/kg for the dendrimeric compound are to the amounts of Cabazitaxel that may theoretically be released by the dendrimer.

[6] = cited from earlier work
[7] = 2.5 mg/kg, by Day 2 through Day 7, males and females
[8] = cited from earlier work; remark: listed apart in the source

Question: Which “male mice recovered to +5/10% starting weight” value (DU145 tumour xenografts; after day 40) does the source give for “BHALys[Lys]32[α-TDA-Cabazitaxel]32 †[ε-PEG˜2100]32‡ [SPL9005]” here?
Answer: The value was 2/10.

Question: What about the “male mice with >20% weight loss” value (DU145 tumour xenografts; after third dose, approx. day 25) of the same molecule?
Answer: Its value is 8/10.

Question: What about the mean weight loss [1] of the same molecule?
Answer: The mean weight loss was “below 10%”.

Question: What about the “AUC0-t free Cabazitaxel” value ([2]; 1 mg/kg drug eq., males) of the same molecule?
Answer: The value was 202.94 ng·h/mL.

Question: What about the “Cmax free (unconjugated) Cabazitaxel” value ([2]; 1 mg/kg drug eq., males) of the same molecule?
Answer: The value was 4.41 ng/mL.

Question: And the “% JEVTANA ® brand cabazitaxel dose” value ([2]; 1 mg/kg drug eq., males)?
Answer: Its value is 30%.

Question: What about the “AUC0-t free Cabazitaxel” value ([2]; 2.5 mg/kg drug eq., males) of the same molecule?
Answer: Its value is 548.96 ng·h/mL.

Question: And the “Cmax free (unconjugated) Cabazitaxel” value ([2]; 2.5 mg/kg drug eq., males)?
Answer: Its value is 9.29 ng/mL.

Question: What about the “% JEVTANA ® brand cabazitaxel dose” value ([2]; 2.5 mg/kg drug eq., males) of the same molecule?
Answer: Its value is 81%.

Question: With Nc1ccn([C@@H]2O[C@H](CO)[C@@H](O)C2(F)F)c(=O)n1 [Gemcitabine, reference compound] as the molecule, how does the “Tumour Growth inhibition (%)” value ([3]; Day 37, Gemcitabine 80 mg/kg i.p., ABRAXANE 40 mg/kg i.v., SPL9048 […] i.v.) read?
Answer: The value was 40%.

Question: And the “anti-tumour efficacy (mean tumour volume, FIG. 7)” value ([3]; study to day 107)?
Answer: The value was “Neither Gemcitabine or ABRAXANE® were effective in this model”.

Question: What does the source list for CO[C@H]1C(=O)[C@]2(C)[C@@H](OC)C[C@H]3OC[C@@]3(OC(C)=O)[C@H]2[C@H](OC(=O)c2ccccc2)[C@]2(O)C[C@H](OC(=O)[C@H](O)[C@@H](NC(=O)OC(C)(C)C)c3ccccc3)C(C)=C1C2(C)C [Cabazitaxel]?
Answer: tumours reaching ethical tumour volume endpoint by day 98 [4]: 9 of 10; Cabazitaxel measurability in plasma over time ([2]; 2.5 mg/kg): not measurable more than 24 hours after; AUC0-t free Cabazitaxel ([2]; 2.5 mg/kg drug eq., males): 679.99 ng·h/mL; Cmax free (unconjugated) Cabazitaxel ([2]; 2.5 mg/kg drug eq., males): 801.05 ng/mL; % JEVTANA ® brand cabazitaxel dose ([2]; 2.5 mg/kg drug eq., males): 100%; Cmax ([2]; Sprague Dawley Crl:CD (SD), rat, plasma, intravenous, 2.5 mg/kg): 801 ng/mL; Tmax ([2]; male, Sprague Dawley Crl:CD (SD), rat, plasma, intravenous, 2.5 mg/kg, males): 2 min; rebound after neutropenia at day 14 [5]: substantial rebound at day 14; neutropenia (FIG. 6), day 7 in particular ([5]; male and female rats): dip in values; patients with febrile neutropenia ([6]; 25-mg/m2 dose): 4%; patients with prolonged grade 4 neutropenia ([6]; 25-mg/m2 dose): 4%; AUC concentration ([6]; 25-mg/m^2 dose): 642±320 mcg/L per hour; Cmax ([6]; 25-mg/m^2 dose): 535 ± 305 µg/L; dose eliminated within 2 weeks ([6]; in vivo): Approximately 80%; patients with diarrhea ([6]; in vivo): 56%; patients with fatigue ([6]; in vivo): 36%; patients with grade 1 hypersensitivity reactions (flushing, dizziness, chest tightness) ([6]; in vivo): 8%; patients with nausea ([6]; in vivo): 40%; patients with neurotoxicity ([6]; in vivo): 36%; patients with vomiting ([6]; in vivo): 16%; intermediate elimination phase, average t½ ([6]; triphasic model, plasma): 1.3 ± 0.6 h; prolonged terminal elimination phase, average t½ ([6]; triphasic model, plasma): 77.3 ± 45.5 h; rapid initial elimination phase, average terminal half-life t½ ([6]; triphasic model, plasma): 2.6 ± 1.4 min; test article related hematology changes [7]: generally greater; mean Cmax ([8]; 25 mg/m2, 1-hour IV, n=67): 226 ng/mL; Tmax (end of infusion) ([8]; 25 mg/m2, 1-hour IV): 1 h; mean AUC ([8]; 25 mg/m2, 1-hour IV): 991 ng·h/mL; patients with Grade 3 or 4 febrile neutropenia ([8]; in vivo): 8%; patients with neutropenia (all grades) ([8]; in vivo): 94%

— US11970583B2, “Therapeutic dendrimer” (Starpharma Pty Ltd., priority 2018, dated 2024)
